The nature of data set [1]: Pharmacokinetic assessments in patient plasma. The data set is classed as in vivo, human.
Data set [2] deals with patients with advanced solid tumors. The conditions noted are these: oral.
For data set [3], the system named is S6 ribosomal protein phosphorylation (Ser235/236) in PBMCs. The experiment in a line: PBMC phospho/total S6RP analysis. Type of data set: in vivo, human. As to conditions: PBMCs of patients, baseline to 1 month of treatment (with vatalanib).
A further data set deals with solid tumors. As to conditions: cited from earlier work.
The mark [4] stands for this setting: everolimus with vatalanib, day 29, mean ± SD.
The mark [5] stands for this setting: vatalanib after everolimus started, day 29, mean ± SD.
The mark [6] stands for this setting: vatalanib alone, day 14, mean ± SD.

Marks after values point to notes of the source that are not given here. Where only a bound is given, the exact number is not on record here.

Take `CO[C@H]1C[C@@H]2CC[C@@H](C)[C@@](O)(O2)C(=O)C(=O)N2CCCC[C@H]2C(=O)O[C@H]([C@H](C)C[C@@H]2CC[C@@H](OCCO)[C@H](OC)C2)CC(=O)[C@H](C)/C=C(\C)[C@@H](O)[C@@H](OC)C(=O)[C@H](C)C[C@H](C)/C=C/C=C/C=C/1C` [Everolimus]: in data set [1] (setting [4]), the CLss/F was determined as 14.3 ± 3.7 L/h, the Cssavg is recorded as 15.7 ± 4.9 ng/mL and the Cssmax is 48.5 ± 14.8 ng/mL. Moreover, in data set [1] (everolimus, cycle 1 day 29, mean concentration-time curve (Fig. 3B)), the “Time of peak of mean plasma concentration” value worked out at 2 h. Further, the Vd/F (usually the apparent distribution volume after extravascular dosing) in data set [1] (human, plasma, oral) amounted to 216 ± 74 L. The AUC (in general, concentration integrated over time) in data set [1] (human, plasma, oral, everolimus with vatalanib, day 29, 24-hour dosing interval, mean ± SD) stood at 377 ± 117 ng·h/mL. Also, in data set [1] (human, plasma, oral, t1/2, everolimus with vatalanib, day 29, mean ± SD), the half-life (commonly how long it takes for the measured level to halve) is 14 ± 2.5 h. In addition, in data set [1] (human, plasma, oral, tmax, everolimus with vatalanib, day 29, median (range)), the Tmax came to 1.31 h. Further, the “Maximum tolerated dose (MTD) of everolimus in the combination” value in data set [2] (combined with vatalanib 1000 mg daily) amounted to 5 mg daily. Besides, the “Mean change in phospho/total ratio of S6RP” value in data set [3] is “no mean change”.

As to `Clc1ccc(Nc2nnc(Cc3ccncc3)c3ccccc23)cc1` [Vatalanib], the “Daily dose with radiographic evidence of a decrease in tumor blood flow” value in the data set on solid tumors (several clinical trials) was at least 1000 mg. For the same compound, the Tolerable dosing with solid tumors (single agent, clinical trials) is given as at most 2000 mg daily. In addition, the “Effect of adding everolimus on systemic exposure of vatalanib (AUC)” value in data set [1] (day 14 vs day 29) is given as “not significantly affected”. Besides, the “Effect of everolimus on the PK parameters of vatalanib (maximum or steady-state plasma concentrations)” value in data set [1] (day 14 vs day 29) is on record as “no substantial effect”. In data set [1] (human, plasma, oral), this compound had a Vd/F of 488 ± 481 L. The AUC in data set [1] (human, plasma, oral, vatalanib after everolimus started, day 29, 24-hour dosing interval, mean ± SD) was 21600 ng·h/mL; in data set [1] (human, plasma, oral, vatalanib alone, day 14, 24-hour dosing interval, mean ± SD) it was 26400 ng·h/mL. Besides, the half-life in data set [1] (human, plasma, oral, t1/2, vatalanib after everolimus started, day 29, mean ± SD) was 5.7 h; in data set [1] (human, plasma, oral, t1/2, vatalanib alone, day 14, steady state, plasma, mean ± SD) it was 6.3 h. Besides, the Tmax in data set [1] (human, plasma, oral, tmax, vatalanib after everolimus started, day 29, median (range)) was 2 h; in data set [1] (human, plasma, oral, tmax, vatalanib alone, day 14, median (range)), 2 h; in data set [1] (vatalanib after everolimus started, day 29, median (range)), 2.08 (1.00-4.08) ^a h. Further, the Cssavg in data set [1] (setting [5]) came to 901 ± 403 ng/mL; in data set [1] (setting [6]), 1099 ± 551 ng/mL. The figures for the Cssmax in data set [1] (setting [5]) and in data set [1] (setting [6]) were 3963 ± 1861 ng/mL and 4825 ± 2910 ng/mL, respectively. Moreover, the t1/2 in data set [1] (setting [5]) came to 5.71 ± 3.06 h; in data set [1] (vatalanib alone, day 14, steady state, plasma, mean ± SD) it was 6.32 ± 4.46 h. Moreover, the “Maximum tolerated dose (MTD) of vatalanib in the combination” value in data set [2] (combined with everolimus 5 mg daily) was 1000 mg daily.

Values taken from publication PMC4623321 (Clinical genitourinary cancer, 2013).
